In patent publication US12180207B2 (ARRAY BIOPHARMA INC., priority 2018, dated 2024) one finds IC50 data, which are given here for nine compounds.

The target in assay [1] is recombinant human FGFR3 (amino acids R397-T806) (Homo sapiens (Human), UniProt P22607). The assay is described as follows: FGFR3 enzyme activity assay (LanthaScreen TR-FRET). As to conditions: 25 μM ATP, 10 min incubation at 22° C., average of multiple determinations if made, read-out: FGFR3 Enz FRET IC50. It counts as biochemical. The procedure, abridged: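 GST-HIS6-tagged human FGFR3 (R397-T806) was reacted with 100 nM Alexa Fluor 647-Poly-GT substrate and 25 μM ATP plus compound in HEPES/MgCl2/Triton buffer, pH 7.5, 2% DMSO, for 10 min at 22 °C.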

The target in assay [2] is recombinant human FGFR1 catalytic domain (amino acids 308-731) (Homo sapiens (Human), UniProt P11362). Nature of the assay: FGFR1 enzyme activity assay (LanthaScreen TR-FRET). It counts as biochemical. As to conditions: 20 min incubation at 22° C., average of multiple determinations if made, read-out: FGFR1 Enz FRET IC50. A digest of the protocol:
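His-tagged FGFR1 kinase domain with 100 nM Alexa Fluor 647-poly-GT peptide and ATP in pH 7.5 HEPES/MgCl2 buffer with 2% DMSO, 20 min at 22 °C. Quenched with EDTA plus 2 nM Eu-PY20 antibody and read after 60 min. IC50 comes from a 4-parameter fit of percent of control.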

Assay [3] concerns the target HEK-293 cells transfected with dox-inducible human wild type FGFR3 (Homo sapiens (Human), UniProt P22607). The assay is described as follows: FGFR3 pFGFR cell assay (ELISA). It counts as cell-based. As to conditions: HEK-293 dox-inducible FGFR3, 1 hour compound, 100 ng/ml FGF-acidic. A digest of the protocol: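 Doxycycline-induced (1 μg/ml) HEK-293 cells expressing wild-type human FGFR3, treated 1 h with compound (1:3 series, top final 5 μM), then stimulated 5 min with 100 ng/ml FGF-acidic. Phospho-FGFR3 measured by ELISA (total FGFR3 capture, phosphotyrosine detection, OD 450 nm); IC50 from 4-parameter fit of POC values.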

Sequence of recombinant human FGFR3 (amino acids R397-T806) (P22607 397-806): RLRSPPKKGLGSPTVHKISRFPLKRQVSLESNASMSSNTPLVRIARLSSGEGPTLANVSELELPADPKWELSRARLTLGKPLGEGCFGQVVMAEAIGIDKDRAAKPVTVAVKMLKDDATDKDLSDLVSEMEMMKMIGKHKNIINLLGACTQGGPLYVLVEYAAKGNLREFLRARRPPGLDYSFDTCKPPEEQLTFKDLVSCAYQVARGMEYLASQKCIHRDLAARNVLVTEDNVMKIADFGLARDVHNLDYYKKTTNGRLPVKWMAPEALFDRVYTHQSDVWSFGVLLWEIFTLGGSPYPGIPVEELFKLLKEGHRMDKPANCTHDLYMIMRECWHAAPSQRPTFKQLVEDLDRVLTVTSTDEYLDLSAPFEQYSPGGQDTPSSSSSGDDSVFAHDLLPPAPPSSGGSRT
Sequence of recombinant human FGFR1 catalytic domain (amino acids 308-731) (P11362 other isoform, or with tags, fused parts or gaps): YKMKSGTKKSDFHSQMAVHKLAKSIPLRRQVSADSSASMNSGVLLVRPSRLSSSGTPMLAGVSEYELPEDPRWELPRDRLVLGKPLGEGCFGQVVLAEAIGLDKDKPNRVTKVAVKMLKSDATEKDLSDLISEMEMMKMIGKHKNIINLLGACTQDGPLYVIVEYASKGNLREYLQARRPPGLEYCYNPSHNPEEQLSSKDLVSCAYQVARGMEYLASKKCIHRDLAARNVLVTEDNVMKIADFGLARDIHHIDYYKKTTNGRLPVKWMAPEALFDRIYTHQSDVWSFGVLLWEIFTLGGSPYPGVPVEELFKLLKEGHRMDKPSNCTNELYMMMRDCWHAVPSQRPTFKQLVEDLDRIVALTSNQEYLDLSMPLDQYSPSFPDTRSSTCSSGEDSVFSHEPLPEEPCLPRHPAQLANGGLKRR
Sequence of HEK-293 cells transfected with dox-inducible human wild type FGFR3 (P22607 23-806): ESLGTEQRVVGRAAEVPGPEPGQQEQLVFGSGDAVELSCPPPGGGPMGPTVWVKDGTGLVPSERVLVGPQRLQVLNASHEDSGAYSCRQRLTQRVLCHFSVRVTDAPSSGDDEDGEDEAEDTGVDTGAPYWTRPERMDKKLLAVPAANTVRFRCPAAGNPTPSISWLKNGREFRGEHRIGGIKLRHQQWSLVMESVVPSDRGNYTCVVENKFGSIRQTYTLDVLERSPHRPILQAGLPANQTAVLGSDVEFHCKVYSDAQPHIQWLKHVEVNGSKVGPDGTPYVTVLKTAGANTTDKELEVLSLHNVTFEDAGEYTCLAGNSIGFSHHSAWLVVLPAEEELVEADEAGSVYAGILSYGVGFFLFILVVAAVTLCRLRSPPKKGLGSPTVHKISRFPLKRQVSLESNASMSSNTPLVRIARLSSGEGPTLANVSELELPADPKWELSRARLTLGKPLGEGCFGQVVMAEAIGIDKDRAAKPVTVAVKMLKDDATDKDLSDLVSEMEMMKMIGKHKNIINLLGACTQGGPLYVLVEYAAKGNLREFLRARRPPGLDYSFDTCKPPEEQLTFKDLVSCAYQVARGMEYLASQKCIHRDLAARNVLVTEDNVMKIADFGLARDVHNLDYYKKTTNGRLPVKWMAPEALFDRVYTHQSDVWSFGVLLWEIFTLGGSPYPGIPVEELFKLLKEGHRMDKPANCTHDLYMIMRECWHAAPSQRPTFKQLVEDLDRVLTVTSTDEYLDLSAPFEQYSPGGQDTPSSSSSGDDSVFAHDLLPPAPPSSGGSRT

Regarding `C=CC(=O)N1CC(C(=O)N2CCC(n3cc(-c4cc(OC(C)C)c5c(C#N)cnn5c4)cn3)CC2)C1` [Example 127, 6-(1-(1-(1-acryloylazetidine-3-carbonyl)piperidin-4-yl)-1H-pyrazol-4-yl)-4-isopropoxypyrazolo[1,5-a]pyridine-3-carbonitrile], the IC50 in assay [1] came to 3 nM; in assay [2], 7 nM; in assay [3] it was 18 nM.

In the case of `C=CC(=O)N1CC(C(=O)N2CCC(n3cc(-c4cc(OCC(C)C)c5c(C#N)cnn5c4)cn3)CC2)C1` [Example 128, 6-(1-(1-(1-acryloylazetidine-3-carbonyl)piperidin-4-yl)-1H-pyrazol-4-yl)-4-isobutoxypyrazolo[1,5-a]pyridine-3-carbonitrile], the results for the IC50 in assay [1], in assay [2] and in assay [3] were 3 nM, 7 nM and 28 nM, respectively.

Consider `C=CC(=O)N1CC(C(=O)N2CCC(n3cc(-c4cc(C(C)C)c5c(C#N)cnn5c4)cn3)CC2)C1` [Example 129, 6-(1-(1-(1-acryloylazetidine-3-carbonyl)piperidin-4-yl)-1H-pyrazol-4-yl)-4-isopropylpyrazolo[1,5-a]pyridine-3-carbonitrile], for which the results for the IC50 in assay [1], in assay [2] and in assay [3] were 6 nM, 14 nM and 23 nM, respectively.

For the compound `C=CC(=O)N1CC(C(=O)N2CCC(n3cc(-c4cc(-c5ccc(NC(=O)C6CC6)cc5F)c5c(C#N)cnn5c4)cn3)CC2)C1` [Example 130, N-(4-(6-(1-(1-(1-acryloylazetidine-3-carbonyl)piperidin-4-yl)-1H-pyrazol-4-yl)-3-cyanopyrazolo[1,5-a]pyridin-4-yl)-3-fluorophenyl)cyclopropane-carboxamide], the IC50 was 2 nM in assay [1], 3 nM in assay [2] and 295 nM in assay [3].

For `C=CC(=O)N1CC(C(=O)N2CCC(n3cc(-c4cc(-c5ccccc5F)c5c(C#N)cnn5c4)cn3)CC2)C1` [Example 131, 6-(1-(1-(1-acryloylazetidine-3-carbonyl)piperidin-4-yl)-1H-pyrazol-4-yl)-4-(2-fluorophenyl)pyrazolo[1,5-a]pyridine-3-carbonitrile], the IC50 was 4 nM in assay [1], 9 nM in assay [2] and 15 nM in assay [3].

For the compound `C=CC(=O)N1CC(CN2CCC(n3cc(-c4cc(OC)c5c(C#N)cnn5c4)cn3)CC2)C1` [Example 132, 6-(1-(1-((1-acryloylazetidin-3-yl)methyl)piperidin-4-yl)-1H-pyrazol-4-yl)-4-methoxypyrazolo[1,5-a]pyridine-3-carbonitrile], the 50% inhibitory concentration (IC50) in assay [1] amounted to 8 nM; in assay [2], 14 nM; in assay [3], 31 nM.

As to `COc1cc(-c2cnn(C3CCN(C(=O)C4CN(C(=O)/C=C/CN(C)C)C4)CC3)c2)cn2ncc(C#N)c12` [Example 143, (E)-6-(1-(1-(1-(4-(dimethylamino)but-2-enoyl)azetidine-3-carbonyl)piperidin-4-yl)-1H-pyrazol-4-yl)-4-methoxypyrazolo [1,5-a]pyridine-3-carbonitrile], the IC50 stood at 2 nM in assay [1], 10 nM in assay [2] and 527 nM in assay [3].

With `COc1cc(-c2cnn(C3CCN(C(=O)C4CN(C(=O)/C=C/CN5CCCCC5)C4)CC3)c2)cn2ncc(C#N)c12` [Example 145, (E)-4-methoxy-6-(1-(1-(1-(4-(piperidin-1-yl)but-2-enoyl)azetidine-3-carbonyl)piperidin-4-yl)-1H-pyrazol-4-yl)pyrazolo[1,5-a]pyridine-3-carbonitrile], the results for the IC50 in assay [1], in assay [2] and in assay [3] were 3 nM, 4 nM and 257 nM, respectively.

`COc1cc(-c2cnn(C3CCN(C(=O)C4CN(C(=O)/C=C/CN(C)C)C4)CC3)c2)cn2ncc(Cl)c12` [Example 174]: the values for the IC50 in assay [1], in assay [2] and in assay [3] were 4 nM, 16 nM and 139 nM, respectively.
